# Legend:
# Assay type in all cases: cell-based, human
# [1] = test system: PHA-stimulated lymphocytes of patients suffering from a hematological malignancy; test: FISH replication assay, lymphocytes of hematological cancer patients grown with 5-azacytidine (Example 6); conditions: for percentage of SD cells following exposure to AZA, mean value: patients' samples 1-15, 72 hours, mean ± standard deviation
# Description: (§1) Each subject donated five ml of peripheral blood. Cell cultures of PHA-stimulated lymphocytes were set up according to standard protocol (Rooney and Czepulkowsli, 1992). Briefly, 0.5 ml of peripheral blood was introduced into a 15 ml test tube containing 5ml F-10 medium supplemented with 20% fetal calf serum, 0.2% heparin, 1% penicillin/streptomycin antibiotic solution (Biological industries, Israel) and 3% phytohemagglutinin (PHA). In addition, all the 15 samples derived from the hematological patients (samples 1-15) and 15 of the 41 samples derived from non-cancerous subjects (samples 16-30) were also grown in the presence of 10^−7M 5-azacytidine (AZA; Sigman, USA) added to the other ingredients described above.
# (§2) After 72 hours at 37° C., colchicine (Sigma, USA) was added to each sample (final concentration of 5×10^−7M for one hour) followed by hypotonic treatment (0.075 M KC1 at 37° C. for 15 minutes) and four washes, each with a fresh cold (−20° C.) 3:1 solution of methanol: acetic acid. The cell suspensions were stored at −20° C. until used for FISH.
# (§3) Six diverse loci were tested using directly labeled commercial probes obtained from Vysis: (i) the SNRPN probe (32-190004); (ii) the TP53 probe (32-190006); (iii) the AML1 probe (LSI 21; 32-190002); (iv) the RB1 probe (LSI 13; 32-190001); (v) the α-satellite probe specific for centromere 17 (32-130017, hereafter marked as CEN17); and (vi) the satellite III probe specific for centromere 15 (32-1300015, hereafter marked as CEN15). The SNRPN probe identifies the Prader-Willi/Angelman syndrome region on 15q11-13 and is the most well characterized imprinted region in man (Ozoelik et al 1992). The TP53 probe identifies the p53 gene mapped to […] and is a tumor suppressor gene whose deletion and/or inactivation is implicated in over 50% of all human tumors (Prokocimer et al 1998). The AML1 probe recognizes a gene mapped to chromosome 21q22, which is one of the most frequently translocated genes in human blood malignancy (Look 1997). […] It is located on chromosome 13q14, and encodes the retinoblastoma protein. Both centromere specific probes (CEN17 and CEN15) identify non-coding loci implicated with chromosomal segregation and stability and are usually used for the enumeration of chromosome 17 and 15, respectively. Also the AML1 and RB1 probes, although not identifying centromeric regions, were both approved by the FDA to replace centromere specific probes for the enumeration of chromosomes 21 and 13, respectively.
# (§4) A standard protocol was followed, as recommended by Ingen Laboratories (currently Insitus Biotechnologies), with few minor changes. Probes were diluted in Ingen's DenHyb solutions D001 to 400 folds (CEN17 and CEN15) and in D003 to 100 fold (AML1; RB1) or 50 fold (TP53; SNRPN) instead of the hybridization solution supplied with the probe. Five μl of the probe solution was placed on the targeted area of the sample slides and covered with a 12 mm round silanized coverslip (Ingen laboratories, USA) at 76° C. and denatured for six minutes at that temperature. The slide-filled aluminum slide tray was then transferred into an HybBox (Ingen Laboratories, USA), covered and allowed to hybridize overnight in the box.
# All samples obtained from the cancerous patients (samples 1-15) were analyzed with each of the six probes used, each in the absence as well as in the presence of AZA. Out of the non-cancerous samples grown without AZA 41 (samples 16-56) were analyzed with the AML1 and TP53 probes, 30 (samples 16-45) with the CEN17 probe and 15 (samples 16-30) with each of the other three probes (SNRPN, RB1 and CEN15).
# (§5) Slides were analyzed blindly on an Olympus BH2 fluorescent microscope, using a triple band-pass filter (Chroma technology). For the replication assay (Boogs and Chinault, 1997) at least 100 cells, containing two well-defined hybridization signals were scored from each sample, for each probe and for each treatment, following one-color FISH. […]
# [2] = test system: PHA-stimulated lymphocytes of non-cancerous individuals; test: FISH replication assay, lymphocytes of non-cancerous individuals grown with 5-azacytidine (Example 6); conditions: for percentage of SD cells, mean value in AZA-exposed non-cancerous samples: samples 16-30, 72 hours, mean ± standard deviation
# Description: as §1, §2, §3, §4
# Each of the 15 samples derived from the noncancerous subjects (samples 16-30) grown in the presence of AZA was also analyzed with each of the six probes used.
# as §5, with “FISH. The structure of each signal, either singlet (S), representing a non-replicated sequence, or doublet (D), disclosing a replicated sequence, was noted FIG. 1.” for “FISH.”
# [3] = test system: PHA-stimulated lymphocytes, chromosome 21, 13, 17 and 15; test: FISH analysis of chromosome losses and gains with and without 5-azacytidine (Example 6); conditions: cancerous samples 1-15, presence vs absence of AZA
# Description: as §1
# For the analyses of chromosome losses and gains, at least 200 cells following one-color FISH with each of the chromosome enumerating probes (AML1, RB1, CEN17 and CEN15) were scored for each tested sample, employing the same preparation used for evaluating allelic replication timing. The frequency of cells containing a single signal was used to evaluate the extent of chromosome losses and the frequency of cells with three or more signals were used to assess the level of chromosome gains.
# The mean SD value of five loci (TP53, AML1, RB1, CEN17 and CEN15) and the mean losses and gains value of four loci (AML1, RB1, CEN17 and CEN15) represent each sample. […]
compound,measurement,setting,value
"Nc1ncn([C@@H]2O[C@H](CO)[C@@H](O)[C@H]2O)c(=O)n1 [AZA, 5-azacytidine]","percentage of SD cells following exposure to AZA, mean value","[1]; AML1 locus, 10^-7M AZA",25.3±3.7%
same,"percentage of SD cells following exposure to AZA, mean value","[1]; CEN15 locus, 10^-7M AZA",21.9±2.3%
same,"percentage of SD cells following exposure to AZA, mean value","[1]; CEN17 locus, 10^-7M AZA",22.7±3.4%
same,"percentage of SD cells following exposure to AZA, mean value","[1]; RB1 locus, 10^-7M AZA",22.4±2.5%
same,"percentage of SD cells following exposure to AZA, range","[1]; TP53, AML1, RB1, CEN17 and CEN15, patients' samples, 10^-7M AZA",15-28%
same,"percentage of SD cells following exposure to AZA, mean value","[1]; TP53 locus, 10^-7M AZA",21.7±4.4%
same,cancer-induced allele-specific replication,"[1]; all five loci tested (TP53, RB1, AML1, satellited sequences of chromosomes 15 and 17), blood cells of hematological patients",reversed to the normal
same,"combined SD frequency (mean of TP53, AML1, RB1, CEN17 and CEN15) per sample, range",[1]; patients' samples exposed to AZA,19.8-26.2%
same,"percentage of SD cells, mean value in AZA-exposed non-cancerous samples","[2]; AML1 locus, 10^-7M AZA",21.5±4.5%
same,"percentage of SD cells, mean value in AZA-exposed non-cancerous samples","[2]; CEN15 locus, 10^-7M AZA",20.9±3.8%
same,"percentage of SD cells, mean value in AZA-exposed non-cancerous samples","[2]; CEN17 locus, 10^-7M AZA",20.9±5.0%
same,"percentage of SD cells, mean value in AZA-exposed non-cancerous samples","[2]; RB1 locus, 10^-7M AZA",22.3±3.9%
same,"percentage of SD cells in AZA-exposed non-cancerous samples, range","[2]; TP53, AML1, RB1, CEN17 and CEN15, 10^-7M AZA",12-29%
same,"percentage of SD cells, mean value in AZA-exposed non-cancerous samples","[2]; TP53 locus, 10^-7M AZA",20.4±4.4%
same,"combined SD frequency (mean of TP53, AML1, RB1, CEN17 and CEN15) per sample, range",[2]; non-cancerous samples exposed to AZA,16.7-24.6%
same,"losses and gains values (mean of AML1, RB1, CEN17 and CEN15)",[3],unchanged

# — patent US6803195B1, “Facile detection of cancer and cancer risk based on level of coordination between alleles” (Ramot At Tel-Aviv University Ltd., priority 1999, dated 2004)
